Results published in patent publication US11131677B2 (University of Washington, priority 2018, dated 2021).
Non-standard residues stand in square brackets, D forms with d. Residues, ends and D or L forms follow the SMILES beside them. dPhe(4-NH2) = Nc1ccc(C[C@@H](N)C(=O)O)cc1; dPhe(4-Cl) = N[C@H](Cc1ccc(Cl)cc1)C(=O)O; Phe(4-NH2) = Nc1ccc(C[C@H](N)C(=O)O)cc1; d2Nal = N[C@H](Cc1ccc2ccccc2c1)C(=O)O; Lys(iPr) = CC(C)NCCCC[C@H](N)C(=O)O; d3Pal = N[C@H](Cc1cccnc1)C(=O)O

Key:
5-AR type 1 and 2 = test: Dutasteride co-treatment with T in human hepatocyte culture; details: for Effect of dutasteride co-treatment on metabolite formation from T: p<0.01 for decreases
Method: (§1) A targeted metabolomics study was performed on previously collected samples from an oral T pharmacokinetics (PK) study (800 mg). T and its primary and secondary metabolites in serum were quantified, and PK data of these steroids were analyzed using the non-compartmental method. […] Additionally, T-metabolism study was also performed in human hepatocytes for 1 h. The media and cell pellets were collected for subsequent metabolomics and proteomics analyses, respectively. Effect of dutasteride treatment on androgen metabolome was also investigated, both in vivo and in vitro.

[1] = Oral testosterone pharmacokinetics and serum metabolite profile (LC-MS/MS) in men with acyline-induced experimental hypogonadism, with and without dutasteride; format: in vivo, human; details: for AUC0-24 h at T800, fold higher than with T200: T800 vs T200; for AUC 0-24 h / Cmax / Tmax / t½ / CL/F: serum; for Average AUC0-24 h with dutasteride, % with respect to T alone: T200+D vs T200; for Average AUC0-24 h with dutasteride, % as compared to T alone: T800+D vs T800; for AUC0-24 h, fold higher as compared to T AUC0-24 h: human serum, 800 mg dose; for CL/F: male, human, oral
Method: T emulsion in sesame oil, mixed with milk, was administered orally to human subjects with acyline-induced experimental hypogonadism. The blood samples were collected and the serum was isolated and stored in −80° C. Steroids and their metabolites were extracted from serum using protein precipitation followed by solid-phase extraction and analyzed by UPLC coupled with SCIEX 6500 MS/MS.
Clinical study design is discussed below. All subjects provided written, informed consent prior to any study procedures. The study was approved by the University of Washington (UW) Investigational Review Board Committee.
While study was conducted with 200, 400 and 800 mg T dose, only T200 and T800 were quantified. […] Samples were mixed for 1 min by vortex mixing, and then centrifuged for 10 min at 3500×g at 4° C. […] Samples (2 mL) were loaded onto the cartridges and flow through was discarded.
Data were acquired by Analyst 1.6 software.

human hepatocytes = test: T metabolism in primary human hepatocytes (metabolite formation); details: for In vitro formation from T: primary human hepatocyte
Method: as §1

UGT2B17 = biological target: T1, UGT2B17 (Homo sapiens, UniProt O75795); details: scaled by absolute UGT2B abundance in the intestine
T1 sequence (O75795 24-530): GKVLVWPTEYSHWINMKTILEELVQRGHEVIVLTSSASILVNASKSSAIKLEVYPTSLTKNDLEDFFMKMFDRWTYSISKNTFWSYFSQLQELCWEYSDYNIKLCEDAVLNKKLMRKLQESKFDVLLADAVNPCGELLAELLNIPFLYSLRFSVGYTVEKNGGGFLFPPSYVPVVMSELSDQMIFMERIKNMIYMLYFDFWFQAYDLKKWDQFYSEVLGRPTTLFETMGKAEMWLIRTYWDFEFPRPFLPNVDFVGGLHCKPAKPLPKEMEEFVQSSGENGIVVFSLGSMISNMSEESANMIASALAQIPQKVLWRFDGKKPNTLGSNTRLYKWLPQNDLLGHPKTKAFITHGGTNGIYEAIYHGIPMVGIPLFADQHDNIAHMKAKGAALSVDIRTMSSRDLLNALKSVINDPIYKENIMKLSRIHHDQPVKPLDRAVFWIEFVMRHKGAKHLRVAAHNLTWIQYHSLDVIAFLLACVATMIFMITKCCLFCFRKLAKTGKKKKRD

[2] = oral T, humans; cited from earlier work
T production = details: normal men, single injection 300 μg/kg subcutaneous; cited from earlier work
UGT2B15 = UGT2B15 (Homo sapiens, UniProt P54855)
Sequence of UGT2B15 (P54855 24-530): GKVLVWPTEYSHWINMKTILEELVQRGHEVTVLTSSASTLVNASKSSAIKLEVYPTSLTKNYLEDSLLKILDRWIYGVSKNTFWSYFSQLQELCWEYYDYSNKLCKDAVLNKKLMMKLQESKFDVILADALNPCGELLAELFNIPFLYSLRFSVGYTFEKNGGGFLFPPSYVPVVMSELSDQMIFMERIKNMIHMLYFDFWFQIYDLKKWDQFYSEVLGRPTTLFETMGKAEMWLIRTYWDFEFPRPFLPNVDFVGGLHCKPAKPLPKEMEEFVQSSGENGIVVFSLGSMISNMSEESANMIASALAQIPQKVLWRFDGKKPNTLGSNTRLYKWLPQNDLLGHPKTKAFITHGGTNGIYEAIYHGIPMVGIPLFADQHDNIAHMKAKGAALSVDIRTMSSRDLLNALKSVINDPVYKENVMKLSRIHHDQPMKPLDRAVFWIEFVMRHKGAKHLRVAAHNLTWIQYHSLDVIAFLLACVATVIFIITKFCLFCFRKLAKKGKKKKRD
Method: Oxazepam was used as a probe substrate for UGT2B15 activity by measuring oxazepam glucuronide formation (m/z 463.3→287.1, 269.1; DP 70; CE 20) with 10 μM oxazepam.

UGT2B7 = UGT2B7 (Homo sapiens, UniProt P16662)
Sequence of UGT2B7 (P16662 24-529): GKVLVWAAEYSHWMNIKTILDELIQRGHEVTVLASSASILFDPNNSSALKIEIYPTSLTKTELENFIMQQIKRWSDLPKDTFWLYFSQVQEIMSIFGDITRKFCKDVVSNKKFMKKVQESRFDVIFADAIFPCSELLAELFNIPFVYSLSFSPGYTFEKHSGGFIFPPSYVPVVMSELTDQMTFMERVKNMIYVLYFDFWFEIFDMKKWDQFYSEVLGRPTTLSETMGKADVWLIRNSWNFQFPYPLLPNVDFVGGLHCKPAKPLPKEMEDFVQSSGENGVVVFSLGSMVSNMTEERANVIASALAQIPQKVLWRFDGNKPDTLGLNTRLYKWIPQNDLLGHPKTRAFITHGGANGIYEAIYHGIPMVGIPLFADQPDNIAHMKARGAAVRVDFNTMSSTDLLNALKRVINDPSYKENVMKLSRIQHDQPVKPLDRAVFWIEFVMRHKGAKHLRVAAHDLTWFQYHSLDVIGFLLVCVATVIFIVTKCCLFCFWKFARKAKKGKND

[3] = T200 + D (200 mg oral T with dutasteride)
[4] = T800 + D (800 mg oral T with dutasteride)

Compound | Effect of dutasteride co-treatment on metabolite formation from T (5-AR type 1 and 2) | Absolute level in pooled serum, fold of baseline eugonadal state ([1]; T200) | Average serum AUC0-24 h ([1]; T200) | Absolute level in pooled serum, fold of baseline eugonadal state ([1]; T800) | AUC 0-24 h ([1]; T200) | t½ ([1]; T200 (200 mg oral T)) | AUC 0-24 h ([1]; T200 + D) | t½ [1, 3] | AUC 0-24 h ([1]; T800) | t½ ([1]; T800 (800 mg oral T)) | AUC 0-24 h ([1]; T800 + D) | t½ [1, 4] | further results
C[C@]12CC[C@H]3[C@@H](C[C@@H](O)C4=CC(=O)CC[C@@]43C)[C@@H]1CC[C@@H]2O [6β-OH-T, 6β-hydroxytestosterone] | significant decreases |  |  |  |  |  |  |  |  |  |  |  | 
C[C@]12CC[C@@H](O)C[C@@H]1CC[C@@H]1[C@@H]2CC[C@]2(C)C(=O)CC[C@@H]12 [A, Androsterone] |  |  |  |  |  |  |  |  |  |  |  |  | Circulating level, % lower in dutasteride treated samples vs T alone ([1]; T200+D): 30%; Circulating level, % lower in dutasteride treated samples vs T alone ([1]; T800+D): 87%
C[C@]12CCC(=O)C=C1CC[C@@H]1[C@@H]2CC[C@]2(C)C(=O)CC[C@@H]12 [AED, Androstenedione] | No significant changes | 2.3 fold | 373.7 nmol/L-h | 14.9 fold | 0.3737 µM·h | 12.7 h | 1.6349 µM·h | 8.3 h | 1.5518 µM·h | 6.8 h | 10.8444 µM·h | 5.2 h | Circulating level, fold higher with dutasteride vs T alone ([1]; T200+D and T800+D): 5.7 fold; AUC0-24 h at T800, fold higher than with T200 [1]: 4.2 fold; Cmax ([1]; T200): 66.3 nM; Tmax ([1]; T200): 2 h; Cmax ([1]; T200 + D): 200 nM; Tmax ([1]; T200 + D): 2 h; Cmax ([1]; T800): 280 nM; Tmax ([1]; T800): 1 h; Cmax ([1]; T800 + D): 2300 nM; Tmax ([1]; T800 + D): 2 h; In vitro formation from T (human hepatocytes): 46%
C[C@]12CC[C@@H](O[C@@H]3O[C@H](C(=O)O)[C@@H](O)[C@H](O)[C@H]3O)C[C@@H]1CC[C@@H]1[C@@H]2CC[C@]2(C)C(=O)CC[C@@H]12 [AG, Androsterone glucuronide] | significant decreases | 9.5 fold | 12,111 nmol/L-h | 29.7 fold | 12.1108 µM·h | 4.9 h |  | 4.5 h | 65.4278 µM·h | 4.5 h | 14.8677 µM·h | 6.3 h | Average AUC0-24 h with dutasteride, % with respect to T alone [1]: 21%; Average AUC0-24 h with dutasteride, % as compared to T alone [1]: 22%; AUC0-24 h, fold higher as compared to T AUC0-24 h [1]: 389 fold
C[C@]12CCC(=O)C[C@@H]1CC[C@@H]1[C@@H]2CC[C@]2(C)[C@@H](O)CC[C@@H]12 [DHT, 5α-Dihydrotestosterone] | significant decreases | 0.6 fold | 26.5 nmol/L-h | 2.2 fold | 0.0265 µM·h | 17.6 h | 0.0096 µM·h | 24.0 h | 0.0874 µM·h | 6.9 h | 0.0266 µM·h | 17.9 h | Average AUC0-24 h with dutasteride, % lower than T alone ([1]; T200): 64%; Average AUC0-24 h with dutasteride, % lower than T alone ([1]; T800): 70%; AUC0-24 h at T800, fold higher than with T200 [1]: 3.3 fold; Cmax ([1]; T200): 2 nM; Tmax ([1]; T200): 2 h; Cmax ([1]; T200 + D): 0.8 nM; Tmax ([1]; T200 + D): 4 h; Cmax ([1]; T800): 8.4 nM; Tmax ([1]; T800): 2 h; Cmax ([1]; T800 + D): 1.8 nM; Tmax ([1]; T800 + D): 4 h
C[C@]12CCC(=O)C[C@@H]1CC[C@@H]1[C@@H]2CC[C@]2(C)[C@@H](O[C@@H]3O[C@H](C(=O)O)[C@@H](O)[C@H](O)[C@H]3O)CC[C@@H]12 [DHTG, DHT-glucuronide] |  | 7.5 fold |  | 40.6 fold |  |  |  |  |  |  |  |  | 
C[C@]12CC[C@@H](O[C@@H]3O[C@H](C(=O)O)[C@@H](O)[C@H](O)[C@H]3O)C[C@H]1CC[C@@H]1[C@@H]2CC[C@]2(C)C(=O)CC[C@@H]12 [EtioG, Etiocholanolone glucuronide] |  | 13 fold | 2160 nmol/L-h | 39.5 fold | 2.1604 µM·h | 5.2 h |  | 10.5 h | 14.9815 µM·h | 7.8 h | 27.0917 µM·h | 9.9 h | Average AUC0-24 h with dutasteride, % with respect to T alone [1]: 151%; Average AUC0-24 h with dutasteride, % as compared to T alone [1]: 180%; AUC0-24 h, fold higher as compared to T AUC0-24 h [1]: 87 fold
C[C@]12CC[C@H]3[C@@H](CCC4=CC(=O)CC[C@@]43C)[C@@H]1CC[C@@H]2O [T, Testosterone, reference compound] |  |  |  |  | 0.0816 µM·h | 12.0 h | 0.0847 µM·h | 7.0 h | 0.1689 µM·h | 5.3 h | 0.2938 µM·h | 5.7 h | Change in serum T levels with dutasteride ([1]; 200 mg T dose): no significant increase; Increase in circulating T concentrations ([1]; 4-fold increase in dose (200 to 800 mg)): 2 fold; CL/F ([1]; 200 mg, T200): 106000 mL/min; CL/F ([1]; 800 mg, T800): 259000 mL/min; CL/F ([1]; T200 + D): 120000 mL/min; CL/F ([1]; T800 + D): 147000 mL/min; Cmax ([1]; T200): 6 nM; Tmax ([1]; T200): 4 h; Cmax ([1]; T200 + D): 8.8 nM; Cmax ([1]; T800): 16.8 nM; Cmax ([1]; T800 + D): 33 nM; Tmax ([1]; T800 + D): 2 h; Contribution of UGT2B17 to intestinal glucuronidation (UGT2B17): 100%; Oral bioavailability [2]: 2-8%
C[C@]12CC[C@H]3[C@@H](CCC4=CC(=O)CC[C@@]43C)[C@@H]1CC[C@@H]2O[C@@H]1O[C@H](C(=O)O)[C@@H](O)[C@H](O)[C@H]1O [TG, Testosterone glucuronide] | No significant changes | 78 fold | 857.2 nmol/L-h | 277 fold | 0.8572 µM·h | 4.4 h | 0.3734 µM·h | 4.3 h | 14.163 µM·h | 3.6 h | 8.5897 µM·h | 2.7 h | Average AUC0-24 h with dutasteride, % with respect to T alone [1]: 43%; Average AUC0-24 h with dutasteride, % as compared to T alone [1]: 60%; Proportion of total T-related species in circulation ([1]; T dosed orally to men with experimental hypogonadism): 13%; Increase in TG/T ratio of dose-normalized AUC0-24 h ([1]; changing dose from 200 to 800 mg): 9.3 fold; AUC0-24 h, fold higher as compared to T AUC0-24 h [1]: 85 fold; Level in hepatocyte media, fold lower than AG (human hepatocytes; human hepatocytes, T-treated): 3.7 fold; In vitro formation from T (human hepatocytes): 42%
CC(=O)Nc1ccc(C[C@H](NC(=O)[C@H](CO)NC(=O)[C@@H](Cc2cccnc2)NC(=O)[C@@H](Cc2ccc(Cl)cc2)NC(=O)[C@@H](Cc2ccc3ccccc3c2)NC(C)=O)C(=O)N[C@H](Cc2ccc(NC(C)=O)cc2)C(=O)N[C@@H](CC(C)C)C(=O)N[C@@H](CCCCNC(C)C)C(=O)N2CCC[C@H]2C(=O)N[C@H](C)C(N)=O)cc1 [acyline] (Ac-[d2Nal][dPhe(4-Cl)][d3Pal]S[Phe(4-NH2)](Ac)[dPhe(4-NH2)](Ac)L[Lys(iPr)]P[dA]-NH2) |  |  |  |  |  |  |  |  |  |  |  |  | Duration of suppression of T production (T production): ≥ 15 days
C[C@]12C=CC(=O)N[C@@H]1CC[C@@H]1[C@@H]2CC[C@]2(C)[C@@H](C(=O)Nc3cc(C(F)(F)F)ccc3C(F)(F)F)CC[C@@H]12 [dutasteride, reference compound] |  |  |  |  |  |  |  |  |  |  |  |  | Inhibition of 5-AR type 1 and 2 mediated metabolism of T (5-AR type 1 and 2; co-treatment with T): complete inhibition
Cc1ccc(NC(=O)c2ccc(CN3CCN(C)CC3)cc2)cc1Nc1nccc(-c2cccnc2)n1 [imatinib] |  |  |  |  |  |  |  |  |  |  |  |  | Inhibition of oxazepam (UGT2B15) glucuronidation (UGT2B15): No significant inhibition; Inhibition of naloxone (UGT2B7) glucuronidation (UGT2B7): No significant inhibition
